Test results taken from article PMC3418399 (Molecular microbiology, 2012).
Starred links: 1 amine or outer side, 2 acyl side, 3 side chain; linkers in the order of their positions; H or OH if unused. Positions of bridges follow the written chain, without caps; N, C: chain ends. Non-standard residues stand in square brackets, D forms with d. Residues, ends and D or L forms follow the SMILES beside them. *: point of attachment. hTyr(3S-OH,4S-OH,3'-OSO3H) = N[C@H](C(=O)O)[C@H](O)[C@@H](O)c1ccc(O)c(OS(=O)(=O)O)c1; Orn(4R-OH,5R-OH) = O=C([C@H](C[C@@H](O)[C@@H](O)N[*:3])N[*:1])[*:2]; Pro(3S-OH,4S-Me) = C[C@H]1CN[C@H](C(=O)O)[C@H]1O; X1 = CCCCCOc1ccc(-c2cc(-c3ccc(C(=O)*)cc3)no2)cc1; Gln(3R-OH) = NC(=O)C[C@@H](O)[C@H](N)C(=O)O; Hyp = O=C(O)[C@@H]1C[C@@H](O)CN1

Assays:
[1] = test system: EL6 (CaCdr1p Q1445R); experiment: MIC, liquid microdilution; assay type: cell-based, Saccharomyces cerevisiae; settings: 48 h
[2] = test system: TM5 (CaCdr1p V674F); experiment: MIC, liquid microdilution; assay type: cell-based, Saccharomyces cerevisiae; settings: 48 h
[3] = test system: EL4-1 (CaCdr1p Q1226K); experiment: MIC, liquid microdilution; assay type: cell-based, Saccharomyces cerevisiae; settings: 48 h
[4] = test system: EL1/TM2 (CaCdr1p G547R); experiment: MIC, liquid microdilution; assay type: cell-based, Saccharomyces cerevisiae; settings: 48 h
[5] = test system: AD/pABC3 (Control); experiment: MIC, liquid microdilution; assay type: cell-based, Saccharomyces cerevisiae; settings: 48 h
[6] = test system: EL4-2 (CaCdr1p Q1226R); experiment: MIC, liquid microdilution; assay type: cell-based, Saccharomyces cerevisiae; settings: 48 h
[7] = test system: AD/CDR1 (Wild type CaCdr1p); experiment: MIC, liquid microdilution; assay type: cell-based, Saccharomyces cerevisiae; settings: 48 h
[8] = test system: EL3 (CaCdr1p Q714K); experiment: MIC, liquid microdilution; assay type: cell-based, Saccharomyces cerevisiae; settings: 48 h
[9] = test system: AD/CDR1 (Wild type CaCdr1p; AD/CaCDR1B); experiment: Agarose diffusion FLC chemosensitization assay; assay type: cell-based, Saccharomyces cerevisiae; settings: ~6 nmole/disk, agarose diffusion, FLC 40 μg ml^−1
[10] = molecular target: Cdr1p ATPase (Candida albicans, UniProt P43071); experiment: CaCdr1p ATPase inhibition assay; assay type: biochemical; settings: read-out: IC50 Cdr1p ATPase; wild type CaCdr1p, oligomycin-sensitive ATPase, pH 7.5
[11] = EL6, Q1445R, milbemycins and micafungin, I95, CSM pH 7.0, 30°C
[12] = TM5, V674F, milbemycins and micafungin, I95, CSM pH 7.0, 30°C
[13] = EL4-1, Q1226K, milbemycins and micafungin, I95, CSM pH 7.0, 30°C
[14] = EL1/TM2, G547R, milbemycins and micafungin, I95, CSM pH 7.0, 30°C
[15] = AD/pABC3, Control, milbemycins and micafungin, I95, CSM pH 7.0, 30°C
[16] = EL4-2, Q1226R, milbemycins and micafungin, I95, CSM pH 7.0, 30°C
[17] = AD/CDR1, Wild type, milbemycins and micafungin, I95, CSM pH 7.0, 30°C
[18] = EL3, Q714K, milbemycins and micafungin, I95, CSM pH 7.0, 30°C

Cdr1p ATPase, sequence (P43071 whole entry): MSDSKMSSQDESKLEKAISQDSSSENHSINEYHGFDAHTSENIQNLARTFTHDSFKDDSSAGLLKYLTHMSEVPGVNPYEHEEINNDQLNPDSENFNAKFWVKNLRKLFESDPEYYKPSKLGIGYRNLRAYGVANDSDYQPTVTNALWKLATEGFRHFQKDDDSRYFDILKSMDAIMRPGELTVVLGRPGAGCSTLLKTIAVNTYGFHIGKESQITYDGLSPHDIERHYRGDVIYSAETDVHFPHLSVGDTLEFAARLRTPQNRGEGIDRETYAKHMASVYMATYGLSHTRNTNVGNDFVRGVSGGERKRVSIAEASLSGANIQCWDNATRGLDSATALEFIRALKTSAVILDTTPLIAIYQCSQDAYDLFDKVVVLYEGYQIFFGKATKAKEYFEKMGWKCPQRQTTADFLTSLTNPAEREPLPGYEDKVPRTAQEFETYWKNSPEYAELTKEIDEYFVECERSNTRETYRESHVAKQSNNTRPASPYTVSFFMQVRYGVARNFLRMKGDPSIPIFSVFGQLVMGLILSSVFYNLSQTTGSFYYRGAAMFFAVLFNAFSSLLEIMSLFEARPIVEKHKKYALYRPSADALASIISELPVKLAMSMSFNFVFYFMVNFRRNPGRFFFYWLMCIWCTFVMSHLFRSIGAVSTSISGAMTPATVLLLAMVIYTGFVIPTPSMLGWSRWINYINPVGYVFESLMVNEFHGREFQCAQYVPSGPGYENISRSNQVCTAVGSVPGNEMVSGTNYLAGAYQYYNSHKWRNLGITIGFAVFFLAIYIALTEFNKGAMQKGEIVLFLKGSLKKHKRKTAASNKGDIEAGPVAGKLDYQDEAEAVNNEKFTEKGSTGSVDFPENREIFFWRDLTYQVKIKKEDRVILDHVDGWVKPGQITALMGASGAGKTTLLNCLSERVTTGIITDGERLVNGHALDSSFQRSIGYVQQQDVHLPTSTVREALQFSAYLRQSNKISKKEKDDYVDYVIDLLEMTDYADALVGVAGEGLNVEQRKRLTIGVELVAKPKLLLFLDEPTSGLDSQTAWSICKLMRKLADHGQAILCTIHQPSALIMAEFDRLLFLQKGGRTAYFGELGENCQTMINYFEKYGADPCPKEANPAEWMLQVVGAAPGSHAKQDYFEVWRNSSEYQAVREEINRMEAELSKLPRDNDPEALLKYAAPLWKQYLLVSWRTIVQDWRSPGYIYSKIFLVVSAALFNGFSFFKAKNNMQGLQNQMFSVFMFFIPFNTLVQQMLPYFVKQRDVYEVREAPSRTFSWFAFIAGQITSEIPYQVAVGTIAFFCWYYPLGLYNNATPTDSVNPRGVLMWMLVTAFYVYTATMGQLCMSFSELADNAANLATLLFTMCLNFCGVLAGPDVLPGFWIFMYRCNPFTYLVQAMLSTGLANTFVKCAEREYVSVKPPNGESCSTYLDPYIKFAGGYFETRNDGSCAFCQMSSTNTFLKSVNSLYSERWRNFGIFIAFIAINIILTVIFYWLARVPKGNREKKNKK

Row | Compound | MIC ([1]; Saccharomyces cerevisiae, pH 7) | MIC ([2]; Saccharomyces cerevisiae, pH 7) | MIC ([3]; Saccharomyces cerevisiae, pH 7) | MIC ([4]; Saccharomyces cerevisiae, pH 7) | MIC ([5]; Saccharomyces cerevisiae, pH 7) | MIC ([6]; Saccharomyces cerevisiae, pH 7) | MIC ([7]; Saccharomyces cerevisiae, pH 7) | MIC ([8]; Saccharomyces cerevisiae, pH 7) | MIC [1, 11] | MIC [2, 12] | MIC [3, 13] | MIC [4, 14] | MIC [5, 15] | MIC [6, 16] | MIC [7, 17] | MIC [8, 18] | other results
1 | C[C@@H]1C[C@@H]([C@H](O)CC2CC(=O)NC(=O)C2)C(=O)[C@@H](C)C1 [Cycloheximide] | 2 µg/mL | 1 µg/mL | 0.5 µg/mL | 0.5 µg/mL | 0.008 µg/mL | 1 µg/mL | 1 µg/mL | 1 µg/mL | – | – | – | – | – | – | – | – | –
2 | C=CC[C@@H]1/C=C(\C)C[C@H](C)C[C@H](OC)[C@H]2O[C@@](O)(C(=O)C(=O)N3CCCC[C@H]3C(=O)O[C@H](/C(C)=C/[C@@H]3CC[C@@H](O)[C@H](OC)C3)[C@H](C)[C@@H](O)CC1=O)[C@H](C)C[C@@H]2OC [FK506] | 40 µg/mL | 40 µg/mL | 40 µg/mL | 40 µg/mL | 0.313 µg/mL | 40 µg/mL | 40 µg/mL | 40 µg/mL | – | – | – | – | – | – | – | – | –
3 | OC(Cn1cncn1)(Cn1cncn1)c1ccc(F)cc1F [Fluconazole] | 240 µg/mL | 160 µg/mL | 80 µg/mL | 100 µg/mL | 0.5 µg/mL | 240 µg/mL | 240 µg/mL | 240 µg/mL | – | – | – | – | – | – | – | – | –
4 | CC(=O)N1CCN(c2ccc(OCC3COC(Cn4ccnc4)(c4ccc(Cl)cc4Cl)O3)cc2)CC1 (centres unmarked) [Ketoconazole] | 4 µg/mL | 3 µg/mL | 1 µg/mL | 1 µg/mL | 0.156 µg/mL | 4 µg/mL | 4 µg/mL | 4 µg/mL | – | – | – | – | – | – | – | – | –
5 | CCCCCOc1ccc(-c2cc(-c3ccc(C(=O)N[C@H]4C[C@@H](O)[C@@H](O)NC(=O)[C@@H]5[C@@H](O)[C@@H](C)CN5C(=O)[C@H]([C@H](O)CC(N)=O)NC(=O)[C@H]([C@H](O)[C@@H](O)c5ccc(O)c(OS(=O)(=O)O)c5)NC(=O)[C@@H]5C[C@@H](O)CN5C(=O)[C@H]([C@@H](C)O)NC4=O)cc3)no2)cc1 [Micafungin] (X1-[Orn(4R-OH,5R-OH)]T[Hyp][hTyr(3S-OH,4S-OH,3'-OSO3H)][Gln(3R-OH)][Pro(3S-OH,4S-Me)]; lactam 1-C) | – | 0.125 µg/mL | 0.125 µg/mL | 0.125 µg/mL | 0.25 µg/mL | 0.125 µg/mL | 0.125 µg/mL | – | – | – | – | – | – | – | – | – | –
6 | Clc1ccc(COC(Cn2ccnc2)c2ccc(Cl)cc2Cl)c(Cl)c1 (centres unmarked) [Miconazole] | 3 µg/mL | 2 µg/mL | 1 µg/mL | 1 µg/mL | 0.156 µg/mL | 3 µg/mL | 2.5 µg/mL | 2.5 µg/mL | – | – | – | – | – | – | – | – | –
7 | CC(C)=CC(=O)OCC1=C[C@H]2C(=O)O[C@H]3C[C@@H](C/C=C(\C)C[C@@H](C)/C=C/C=C4\CO[C@H]([C@@H]1O)[C@@]42O)O[C@@]1(CC[C@H](C)[C@@H](C)O1)C3 [Milbemycin α11] | – | – | – | – | – | – | – | – | 4 µg/mL | >8 µg/mL | 8 µg/mL | 8 µg/mL | 4 µg/mL | 4 µg/mL | 4 µg/mL | 4 µg/mL | –
8 | C/C=C(\C)C(=O)OCC1=C[C@H]2C(=O)O[C@H]3C[C@@H](C/C=C(\C)C[C@@H](C)/C=C/C=C4\CO[C@H]([C@@H]1O)[C@@]42O)O[C@@]1(CC[C@H](C)[C@@H](C)O1)C3 [Milbemycin α20] | – | – | – | – | – | – | – | – | >8 µg/mL | >8 µg/mL | >8 µg/mL | >8 µg/mL | >8 µg/mL | >8 µg/mL | >8 µg/mL | >8 µg/mL | –
9 | CC1=C[C@H]2C(=O)O[C@H]3C[C@@H](C/C=C(\C)C[C@@H](C)/C=C/C=C(\C)[C@]2(O)[C@H](O)[C@@H]1O)O[C@@]1(CC[C@H](C)[C@@H](C)O1)C3 [Milbemycin β11] | – | – | – | – | – | – | – | – | >8 µg/mL | >8 µg/mL | >8 µg/mL | >8 µg/mL | >8 µg/mL | >8 µg/mL | >8 µg/mL | >8 µg/mL | –
10 | CC/N=c1\cc2oc3cc(NCC)c(C)cc3c(-c3ccccc3C(=O)OCC)c-2cc1C [Rhodamine 6G] | 75 µM | 50 µM | 50 µM | 50 µM | 1 µM | 50 µM | 75 µM | 75 µM | – | – | – | – | – | – | – | – | –
11 | COC(=O)c1ccccc1-c1c2ccc(=N)cc-2oc2cc(N)ccc12 [Rhodamine 123] | 200 µM | 150 µM | 150 µM | 150 µM | 8 µM | 200 µM | 300 µM | 200 µM | – | – | – | – | – | – | – | – | –
12 | CN1CCN(CCCN2c3ccccc3Sc3ccc(C(F)(F)F)cc32)CC1 [Trifluoperazine] | 80 µM | 20 µM | 40 µM | 40 µM | 5 µM | 40 µM | 40 µM | 40 µM | – | – | – | – | – | – | – | – | –
13 | C[C@@H](c1ncncc1F)[C@](O)(Cn1cncn1)c1ccc(F)cc1F [Voriconazole] | 10 µg/mL | 4 µg/mL | 2.5 µg/mL | 2.5 µg/mL | 0.156 µg/mL | 6 µg/mL | 8 µg/mL | 8 µg/mL | – | – | – | – | – | – | – | – | –
14 | D-NH2-FFKWQR(Mtr)KK-CONH2 | – | – | – | – | – | – | – | – | – | – | – | – | – | – | – | – | chemosensitization of cells overexpressing CaCdr1p to FLC [9]: chemosensitizing activity
15 | D-NH2-FFKWQRRR-CONH2 | – | – | – | – | – | – | – | – | – | – | – | – | – | – | – | – | IC50 [10]: 2000 nM
16 | D-NH2-FFKWQRRR-CONH2 + Mtr [RC21] | – | – | – | – | – | – | – | – | – | – | – | – | – | – | – | – | IC50 [10]: 1300 nM
17 | Enniatin | – | – | – | – | – | – | – | – | – | – | – | – | – | – | – | – | MIC ([1]; EL6, Q1445R, cycloheximide, enniatin and FK506, CSM pH 7.0, 30°C): 4 µg/mL; MIC ([2]; TM5, V674F, cycloheximide, enniatin and FK506, CSM pH 7.0, 30°C): 4 µg/mL; MIC ([3]; EL4-1, Q1226K, cycloheximide, enniatin and FK506, CSM pH 7.0, 30°C): 4 µg/mL; MIC ([4]; EL1/TM2, G547R, cycloheximide, enniatin and FK506, CSM pH 7.0, 30°C): 4 µg/mL; MIC ([5]; AD/pABC3, Control, cycloheximide, enniatin and FK506, CSM pH 7.0, 30°C): 4 µg/mL; MIC ([6]; EL4-2, Q1226R, cycloheximide, enniatin and FK506, CSM pH 7.0, 30°C): 4 µg/mL; MIC ([7]; AD/CDR1, Wild type, cycloheximide, enniatin and FK506, CSM pH 7.0, 30°C): 4 µg/mL; MIC ([8]; EL3, Q714K, cycloheximide, enniatin and FK506, CSM pH 7.0, 30°C): 4 µg/mL
18 | Milbemycin α25 | – | – | – | – | – | – | – | – | >8 µg/mL | >8 µg/mL | 8 µg/mL | 8 µg/mL | 8 µg/mL | >8 µg/mL | 8 µg/mL | >8 µg/mL | –
19 | Milbemycin α26 | – | – | – | – | – | – | – | – | 8 µg/mL | 8 µg/mL | 8 µg/mL | 8 µg/mL | 8 µg/mL | 8 µg/mL | 8 µg/mL | 8 µg/mL | –
20 | Milbemycin β9 | – | – | – | – | – | – | – | – | >8 µg/mL | >8 µg/mL | >8 µg/mL | >8 µg/mL | 8 µg/mL | >8 µg/mL | >8 µg/mL | 8 µg/mL | –
